We go through 16 compounds from patent US4169846A, “Cis-platinum (II) complex of trans-l-1,2-diaminocyclohexane” (priority 1976, dated 1979).

Like-named read-outs stand apart in the source and are kept apart here.

One series concerns leukemia P 388. Briefly: Anti-tumor activity on mice against leukemia P 388. To be noted: days 1 and 5. In kind it is in vivo, CDF1 mice. Here is the method:
(§1) To test the anti-tumor activity of the compounds of the present invention, 100,000 cells/mouse of leukemia L 1210 and 1,000,000 cells/mouse of leukemia P 388 were transplanted by intraperitoneal injection to groups of CDF1 mice, respectively. One and 5 days after the transplantation, the test compound was administered by intraperitoneal injection to the mice.
(§2) The anti-tumor activity of the test compound was evaluated by means of T/C %, i.e., 100 times the mean survival period of the groups injected with the test compound divided by the means survival period of the comparison groups which were not injected with the test compound. The value of higher than 120% for L 1210 and higher than 125% for P 388 means that the test compound has a good effect.

Series [1] has as its system ascites-tumor Sarcoma 180A. Type of series: in vivo, ddN mice. To be noted: for Growth Rate T/C (%): daily from one to five days. How it is done:
To test the anti-tumor activity of the compounds of the present invention, cells of ascites-tumor Sarcoma 180A were transplanted by intraperitoneal injection to groups of ddN mice. From one to five days, the test compound was administered by intraperitoneal injection day after day. The ascites of the resulting mice was sampled to evaluate the anti-tumor activity of the test compound by means of the growth rate of the tumor, T/C % (groups with treatment/groups without treatment). In the table, the designations "-", "+", "++" and "+++" mean 100-66%, 65-41%, 40-11% and 10-0%, of the T/C %, respectively.

The test system of a further series is male mice (ddN strain). Briefly: Acute toxicity test (intraperitoneal). In kind it is in vivo. To be noted: i.p., suspension in 0.3% CMC. Here is the method: A suspension of the test substance in 0.3% CMC aqueous solution was intraperitoneally administered to the test mice in a dose amount of 0.5 ml per mouse.
For a further series, the system named is leukemia L 1210. The series is described as follows: Anti-tumor activity on mice against leukemia L 1210. In kind it is in vivo, CDF1 mice. The conditions noted are these: days 1 and 5. How it is done:
as §1, §2

As for `NC1CCCCC1N.O=C1CC(=O)[O][Pt][O]1` (stereo not drawn) [Compound No. 8, Cis-malonato(trans-d-1,2-diaminocyclohexane)platinum (II)], the T/C % with leukemia P 388 (P 388, 12.5 mg/kg i.p.) is recorded as 121%; in the series with leukemia P 388 (P 388, 25 mg/kg i.p.), 138%; in the series with leukemia P 388 (P 388, 50 mg/kg i.p.), 155%. In addition, the Evaluation result is “+ (65-41%)” in series [1] (10 mg/kg i.p.), “+++ (10-0%)” in series [1] (30 mg/kg i.p.) and “+++ (10-0%)” in series [1] (100 mg/kg i.p.). For the same compound, the “Growth Rate T/C (%)” value in series [1] (10 mg/kg i.p.) is listed as 47%; in series [1] (30 mg/kg i.p.) it was 1%; in series [1] (100 mg/kg i.p.), 0%.
For the compound `NC1CCCCC1N.O=C1[O][Pt][O]C1=O` (stereo not drawn) [Compound No. 5, Cis-oxalato(trans-d-1,2-diaminocyclohexane)platinum (II)], the T/C % is given as 174% in the series on leukemia P 388 (P 388, 10 mg/kg i.p.); 195% in the series with leukemia P 388 (P 388, 20 mg/kg i.p.); 0% in the series on leukemia P 388 (P 388, 40 mg/kg i.p.). The Evaluation result in series [1] (3 mg/kg i.p.) is “+++ (10-0%)”. In series [1] (3 mg/kg i.p.), the “Growth Rate T/C (%)” value is given as 10%.
As for `CC(C(=O)[O-])C(=O)[O-].NC1CCCCC1N.[Pt+2]` [Compound No. 12, Cis-methylmalonato(trans-l-1,2-diaminocyclohexane)platinum(II)], the T/C % in the series on leukemia P 388 (P 388, 25 mg/kg i.p.) amounted to 115%; in the series on leukemia P 388 (P 388, 50 mg/kg i.p.), 122%; in the series with leukemia P 388 (P 388, 100 mg/kg i.p.) it was 141%.
One may read the LD50 as the dose at which mortality reaches 50%. A higher LD50 goes with a less toxic substance. As to `NC1CCCCC1N.[Cl][Pt][Cl]` (stereo not drawn) [Compound No. 2, Cis-dichloro(trans-d-1,2-diaminocyclohexane)platinum (II)], the Evaluation result was “++ (40-11%)” in series [1] (1 mg/kg i.p.) and “+++ (10-0%)” in series [1] (3 mg/kg i.p.). In addition, the figures for the “Growth Rate T/C (%)” value in series [1] (1 mg/kg i.p.) and in series [1] (3 mg/kg i.p.) were 8% and 1%, respectively. The 50% lethal dose (LD50) with male mice (ddN strain) came out at 22.5 mg/kg. Also, the T/C % in the series on leukemia L 1210 (L 1210, 12.5 mg/kg i.p.) is 291%; with leukemia L 1210 (L 1210, 25 mg/kg i.p.), 110%; in the series with leukemia L 1210 (L 1210, 50 mg/kg i.p.) it was 71%; in the series on leukemia L 1210 (L 1210, 100 mg/kg i.p.), 71%; in the series on leukemia L 1210 (L 1210, 200 mg/kg i.p.) it was 0%.
For `NC1CCCCC1N.O=C([O-])CC(=O)[O-].[Pt+2]` (stereo not drawn) [Compound No. 7, Cis-malonato(cis-1,2-diaminocyclohexane)platinum (II)], the T/C % with leukemia P 388 (P 388, 12.5 mg/kg i.p.) came to 126%; with leukemia P 388 (P 388, 25 mg/kg i.p.), 142%; with leukemia P 388 (P 388, 50 mg/kg i.p.), 155%. Moreover, the Evaluation result in series [1] (10 mg/kg i.p.) is “+ (65-41%)”; in series [1] (30 mg/kg i.p.) it was “+++ (10-0%)”; in series [1] (100 mg/kg i.p.), “+++ (10-0%)”. The “Growth Rate T/C (%)” value in series [1] (10 mg/kg i.p.) came to 61%; in series [1] (30 mg/kg i.p.), 0%; in series [1] (100 mg/kg i.p.), 0%.
With “Cis-uracil(trans-d-1,2-diaminocyclohexane)platinum (II) [Compound No. 14]”, the T/C % in the series with leukemia P 388 (P 388, 50 mg/kg i.p.) amounted to 140%; with leukemia P 388 (P 388, 100 mg/kg i.p.) it was 142%; in the series on leukemia P 388 (P 388, 200 mg/kg i.p.) it was 178%.
In the case of `O=C(O)C(=O)O.[NH-][C@@H]1CCCC[C@H]1[NH-].[Pt+2]` (relative stereo) [Compound No. 6, Cis-oxalato(trans-l-1,2-diaminocyclohexane)platinum (II)], the T/C % in the series with leukemia P 388 (P 388, 6.25 mg/kg i.p.) amounted to 188%; in the series on leukemia P 388 (P 388, 25 mg/kg i.p.) it was 61%; in the series with leukemia P 388 (P 388, 50 mg/kg i.p.), 0%; in the series with leukemia P 388 (P 388, 100 mg/kg i.p.), 0%. Further, in series [1] (3 mg/kg i.p.), the Evaluation entry is listed as “+++ (10-0%)”. Further, the “Growth Rate T/C (%)” value in series [1] (3 mg/kg i.p.) is recorded as 9%.
For `NC1CCCCC1N.O=C1[O][Pt][O]C1=O` (stereo not drawn) [Compound No. 4, Cis-oxalato(cis-1,2-diaminocyclohexane)platinum (II)], the T/C % is given as 200% with leukemia P 388 (P 388, 25 mg/kg i.p.); 0% in the series on leukemia P 388 (P 388, 50 mg/kg i.p.); 0% in the series on leukemia P 388 (P 388, 100 mg/kg i.p.). Besides, the “Growth Rate T/C (%)” value in series [1] (0.3 mg/kg i.p.) was found to be 83%; in series [1] (1 mg/kg i.p.) it was 0%; in series [1] (3 mg/kg i.p.) it was 0%; in series [1] (10 mg/kg i.p.), 0%. Besides, the Evaluation entry in series [1] (1 mg/kg i.p.), in series [1] (3 mg/kg i.p.) and in series [1] (10 mg/kg i.p.) was “+++ (10-0%)” in each case.
On to `CC1C(=O)[O][Pt][O]C1=O.NC1CCCCC1N` [Compound No. 11, Cis-methylmalonato(trans-d-1,2-diaminocyclohexane)platinum(II)], for which the T/C % came to 121% with leukemia P 388 (P 388, 25 mg/kg i.p.); 138% in the series with leukemia P 388 (P 388, 50 mg/kg i.p.); 154% in the series with leukemia P 388 (P 388, 100 mg/kg i.p.).
`NC1CCCCC1N.O=C([O-])CC(=O)[O-].[Pt+2]` (stereo not drawn) [Compound No. 9, Cis-malonato(trans-l-1,2-diaminocyclohexane)platinum (II)]: the T/C % is reported as 202% with leukemia P 388 (P 388, 75 mg/kg i.p.) and 104% with leukemia P 388 (P 388, 150 mg/kg i.p.). For the same compound, the “Growth Rate T/C (%)” value in series [1] (3 mg/kg i.p.) stood at 85%; in series [1] (10 mg/kg i.p.) it was 17%; in series [1] (30 mg/kg i.p.), 1%; in series [1] (100 mg/kg i.p.) it was 4%. Also, the figures for the Evaluation result in series [1] (10 mg/kg i.p.), in series [1] (30 mg/kg i.p.) and in series [1] (100 mg/kg i.p.) were “++ (40-11%)”, “+ ++” and “+++ (10-0%)”, respectively.
For the compound `NC1CCCCC1N.[Cl-].[Cl-].[Pt+2]` (stereo not drawn) [Compound No. 1, Cis-dichloro(cis-1,2-diaminocyclohexane)Platinum (II)], the Evaluation entry in series [1] (1 mg/kg i.p.) is “+ (65-41%)”; in series [1] (3 mg/kg i.p.) it was “+++ (10-0%)”; in series [1] (10 mg/kg i.p.), “+++ (10-0%)”. For the same compound, the “Growth Rate T/C (%)” value was found to be 57% in series [1] (1 mg/kg i.p.), 3% in series [1] (3 mg/kg i.p.) and 0% in series [1] (10 mg/kg i.p.). In the series with male mice (ddN strain), this compound showed a median lethal dose (LD50) of 11.3 mg/kg. The T/C % was determined as 198% in the series with leukemia L 1210 (L 1210, 6.25 mg/kg i.p.); 211% in the series on leukemia L 1210 (L 1210, 12.5 mg/kg i.p.); 164% in the series with leukemia L 1210 (L 1210, 25 mg/kg i.p.); 0% in the series on leukemia L 1210 (L 1210, 100 mg/kg i.p.); 0% with leukemia L 1210 (L 1210, 200 mg/kg i.p.); 0% in the series with leukemia L 1210 (L 1210, 400 mg/kg i.p.).
Consider “Cis-uracil(cis-1,2-diaminocyclohexane)platinum (II) [Compound No. 13]”, for which the T/C % in the series on leukemia P 388 (P 388, 100 mg/kg i.p.) is on record as 163%; in the series on leukemia P 388 (P 388, 200 mg/kg i.p.), 71%; in the series on leukemia P 388 (P 388, 400 mg/kg i.p.) it was 0%.
As to `CC(C(=O)[O-])C(=O)[O-].NC1CCCCC1N.[Pt+2]` [Compound No. 10, Cis-methylmalonato(cis-1,2-diaminocyclohexane)platinum (II)], the T/C % turned out to be 102% in the series on leukemia P 388 (P 388, 20 mg/kg i.p.); 121% in the series with leukemia P 388 (P 388, 40 mg/kg i.p.); 133% in the series on leukemia P 388 (P 388, 80 mg/kg i.p.).
As to “Cis-uracil(trans-l-1,2-diaminocyclohexane)platinum (II) [Compound No. 15]”, the T/C % in the series with leukemia P 388 (P 388, 50 mg/kg i.p.) came to 155%; with leukemia P 388 (P 388, 100 mg/kg i.p.), 181%; with leukemia P 388 (P 388, 200 mg/kg i.p.), 178%.
Consider `NC1CCCCC1N.[Cl][Pt][Cl]` (stereo not drawn) [cis-dichloro (1,2-DAC) Pt(II), reference compound], for which the Evaluation entry in series [1] (0.3 mg/kg i.p.) is listed as “++ (40-11%)”; in series [1] (1 mg/kg i.p.) it was “++ (40-11%)”; in series [1] (3 mg/kg i.p.), “+++ (10-0%)”. Also, the “Growth Rate T/C (%)” value in series [1] (0.3 mg/kg i.p.) was determined as 12%; in series [1] (1 mg/kg i.p.), 19%; in series [1] (3 mg/kg i.p.), 3%.
Turning to `NC1CCCCC1N.[Cl-].[Cl-].[Pt+2]` (stereo not drawn) [Compound No. 3, Cis-dichloro(trans-l-1,2-diaminocyclohexane)platinum (II)], the Evaluation result in series [1] (1 mg/kg i.p.) is listed as “++ (40-11%)”; in series [1] (3 mg/kg i.p.), “+++ (10-0%)”. Also, the “Growth Rate T/C (%)” value is on record as 18% in series [1] (1 mg/kg i.p.) and 2% in series [1] (3 mg/kg i.p.). In addition, the LD50 with male mice (ddN strain) is given as 14.1 mg/kg. Also, the T/C % in the series with leukemia L 1210 (L 1210, 6.25 mg/kg i.p.) was 316%; with leukemia L 1210 (L 1210, 12.5 mg/kg i.p.), 379%; in the series on leukemia L 1210 (L 1210, 25 mg/kg i.p.), 88%; with leukemia L 1210 (L 1210, 50 mg/kg i.p.), 71%; in the series on leukemia L 1210 (L 1210, 100 mg/kg i.p.) it was 0%; in the series on leukemia L 1210 (L 1210, 200 mg/kg i.p.), 0%.
